{"source": "patent US20240016781A1", "about": "“TREATMENT OF KRAS MUTANT CANCERS” (MEI Pharma, Inc., priority 2020, published 2024)", "test_in_all_cases": "72-hour CellTiter-Glo 2.0 growth inhibition screen (single agent, 9x9 combination dose matrix);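 on Best CI Level: inhibition effect level at which the best CI was calculated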", "format_in_all_cases": "cell-based", "key": {"HCC44": {"system": "HCC44", "details": "for EC50: HCC44, 72 h"}, "Gp2D": {"system": "Gp2D", "details": "for EC50: GP2d"}, "TOV-21G": {"system": "TOV-21G"}, "NCI-H358": {"system": "NCI-H358", "details": "for EC50: NCI-H358, 72 h"}, "[1]": {"details": "HCC44 (KRAS G12C), enhancer + MEI-522 (Voruciclib), 72 h"}, "[2]": {"details": "Homo sapiens, HCC44, Lung, Additional Single Agent Responses (inhibition, % I), 72 h"}, "[3]": {"details": "Homo sapiens, HCC44, Lung, growth inhibition (GI) curve, single agent, 72 h"}, "[4]": {"details": "enhancer combined with MEI-522 (Voruciclib), HCC44 (Lung), 72 hours, inhibition data"}, "[5]": {"details": "Gp2D (KRAS G12D), enhancer + MEI-522 (Voruciclib), 72 h"}, "[6]": {"details": "Gp2D, Colorectal, Additional Single Agent Responses (inhibition, % I), 72 h"}, "[7]": {"details": "enhancer combined with MEI-522 (Voruciclib), Gp2D (Colorectal), 72 hours, inhibition data"}, "[8]": {"details": "TOV-21G (KRAS G13C), enhancer + MEI-522 (Voruciclib), 72 h"}, "[9]": {"details": "enhancer combined with MEI-522 (Voruciclib), TOV-21G (Ovary), 72 hours, inhibition data"}, "[10]": {"details": "NCl-H358 (KRAS G12C), enhancer + MEI-522 (Voruciclib), 72 h"}, "[11]": {"details": "enhancer combined with MEI-522 (Voruciclib), NCl-H358 (Lung), 72 hours, inhibition data"}}, "note": "Like-named read-outs stand apart in the source and are kept apart here."}
{"molecule": "CN1CCN(c2ccc(OC(F)(F)F)c(Nc3ncc4c(n3)-c3c(c(C(N)=O)nn3CCO)CC4)c2)CC1", "note": "[Onvansertib]", "values": [{"measurement": "Best CI", "setting": "HCC44; [1]", "value": 0.65}, {"measurement": "Bliss Volume", "setting": "HCC44; [1]", "value": 4.26}, {"measurement": "HSA volume", "setting": "HCC44; [1]", "value": 1.33}, {"measurement": "Loewe Volume", "setting": "HCC44; [1]", "value": 0.16}, {"measurement": "Synergy Score", "setting": "HCC44; [1]", "value": 3.96}, {"measurement": "Response Area", "setting": "HCC44; HCC44, Lung, Additional Single Agent Responses (inhibition, % I), 72 h", "value": 3.83}, {"measurement": "Response Area", "setting": "HCC44; HCC44, Lung, growth inhibition (GI), AUC, single agent, 72 h", "value": 5.16}, {"measurement": "EC50", "setting": "HCC44; [2]", "value": 18.5, "unit": "nM"}, {"measurement": "EC50", "setting": "HCC44; [3]", "value": 22, "unit": "nM"}, {"measurement": "IC50", "setting": "HCC44; [2]", "value": 25.3, "unit": "nM"}, {"measurement": "Emax", "setting": "HCC44; Homo sapiens, HCC44, Lung, Additional Single Agent Responses, 72 h, read-out: Max Response (% I)", "value": 81, "unit": "%"}, {"measurement": "GI50", "setting": "HCC44; [3]", "value": 18.7, "unit": "nM"}, {"measurement": "Emax", "setting": "HCC44; Homo sapiens, HCC44, Lung, growth inhibition (GI), single agent, 72 h, read-out: Max Response (% GI)", "value": 112, "unit": "%"}, {"measurement": "Best CI", "setting": "HCC44; [4]", "value": 0.80}, {"measurement": "Bliss Volume", "setting": "HCC44; [4]", "value": "−0.85"}, {"measurement": "HSA volume", "setting": "HCC44; [4]", "value": 0.68}, {"measurement": "Loewe Volume", "setting": "HCC44; [4]", "value": "−0.34"}, {"measurement": "Synergy Score", "setting": "HCC44; [4]", "value": 0.67}, {"measurement": "Best CI Level", "setting": "HCC44; enhancer combined with MEI-522 (Voruciclib), HCC44 (Lung), 72 hours, inhibition data, unit assumed", "value": 20, "unit": "%"}, {"measurement": "EC50", "setting": "Gp2D; 72 h, Colorectal, Additional Single Agent Responses (inhibition, % I)", "value": 23.8, "unit": "nM"}, {"measurement": "EC50", "setting": "Gp2D; 72 h, Colorectal, growth inhibition (GI) curve, single agent", "value": 33.9, "unit": "nM"}, {"measurement": "Best CI", "setting": "Gp2D; [5]", "value": 0.96}, {"measurement": "Bliss Volume", "setting": "Gp2D; [5]", "value": 7.51}, {"measurement": "HSA volume", "setting": "Gp2D; [5]", "value": "−1.36"}, {"measurement": "Loewe Volume", "setting": "Gp2D; [5]", "value": "−1.41"}, {"measurement": "Synergy Score", "setting": "Gp2D; [5]", "value": 3.16}, {"measurement": "IC50", "setting": "Gp2D; [6]", "value": 25.5, "unit": "nM"}, {"measurement": "Response Area", "setting": "Gp2D; [6]", "value": 4.29}, {"measurement": "Emax", "setting": "Gp2D; Gp2D, Colorectal, Additional Single Agent Responses, 72 h, read-out: Max Response (% I)", "value": 93, "unit": "%"}, {"measurement": "GI50", "setting": "Gp2D; Gp2D, Colorectal, growth inhibition (GI) curve, single agent, 72 h", "value": 22.4, "unit": "nM"}, {"measurement": "Response Area", "setting": "Gp2D; Gp2D, Colorectal, growth inhibition (GI), AUC, single agent, 72 h", "value": 7.46}, {"measurement": "Emax", "setting": "Gp2D; Gp2D, Colorectal, growth inhibition (GI), single agent, 72 h, read-out: Max Response (% GI)", "value": 170, "unit": "%"}, {"measurement": "Best CI", "setting": "Gp2D; [7]", "value": 0.77}, {"measurement": "Best CI Level", "setting": "Gp2D; [7]", "value": 20}, {"measurement": "Bliss Volume", "setting": "Gp2D; [7]", "value": 0.17}, {"measurement": "HSA volume", "setting": "Gp2D; [7]", "value": 0.25}, {"measurement": "Loewe Volume", "setting": "Gp2D; [7]", "value": 0.05}, {"measurement": "Synergy Score", "setting": "Gp2D; [7]", "value": 0.56}, {"measurement": "EC50", "setting": "TOV-21G; Homo sapiens, TOV21G, 72 h, TOV-21G, Ovary, Additional Single Agent Responses (inhibition, % I)", "value": 28.1, "unit": "nM"}, {"measurement": "EC50", "setting": "TOV-21G; Homo sapiens, TOV21G, 72 h, TOV-21G, Ovary, growth inhibition (GI) curve, single agent", "value": 34.2, "unit": "nM"}, {"measurement": "IC50", "setting": "TOV-21G; Homo sapiens, TOV21G, TOV-21G, Ovary, Additional Single Agent Responses (inhibition, % I), 72 h", "value": 31.6, "unit": "nM"}, {"measurement": "Emax", "setting": "TOV-21G; Homo sapiens, TOV21G, TOV-21G, Ovary, Additional Single Agent Responses, 72 h, read-out: Max Response (% I)", "value": 86, "unit": "%"}, {"measurement": "GI50", "setting": "TOV-21G; Homo sapiens, TOV21G, TOV-21G, Ovary, growth inhibition (GI) curve, single agent, 72 h", "value": 26.5, "unit": "nM"}, {"measurement": "Emax", "setting": "TOV-21G; Homo sapiens, TOV21G, TOV-21G, Ovary, growth inhibition (GI), single agent, 72 h, read-out: Max Response (% GI)", "value": 143, "unit": "%"}, {"measurement": "Best CI", "setting": "TOV-21G; [8]", "value": 0.40}, {"measurement": "Bliss Volume", "setting": "TOV-21G; [8]", "value": 5.55}, {"measurement": "HSA volume", "setting": "TOV-21G; [8]", "value": "−0.24"}, {"measurement": "Loewe Volume", "setting": "TOV-21G; [8]", "value": "−0.71"}, {"measurement": "Synergy Score", "setting": "TOV-21G; [8]", "value": 1.56}, {"measurement": "Response Area", "setting": "TOV-21G; TOV-21G, Ovary, Additional Single Agent Responses (inhibition, % I), 72 h", "value": 3.84}, {"measurement": "Response Area", "setting": "TOV-21G; TOV-21G, Ovary, growth inhibition (GI), AUC, single agent, 72 h", "value": 6.09}, {"measurement": "Best CI", "setting": "TOV-21G; [9]", "value": 0.56}, {"measurement": "Best CI Level", "setting": "TOV-21G; [9]", "value": 30}, {"measurement": "Bliss Volume", "setting": "TOV-21G; [9]", "value": 0.52}, {"measurement": "HSA volume", "setting": "TOV-21G; [9]", "value": 0.33}, {"measurement": "Loewe Volume", "setting": "TOV-21G; [9]", "value": 0.43}, {"measurement": "Synergy Score", "setting": "TOV-21G; [9]", "value": 0.98}, {"measurement": "EC50", "setting": "NCI-H358; Homo sapiens, NCl-H358, Lung, Additional Single Agent Responses (inhibition, % I), 72 h", "value": 16.7, "unit": "nM"}, {"measurement": "EC50", "setting": "NCI-H358; Homo sapiens, NCl-H358, Lung, growth inhibition (GI) curve, single agent, 72 h", "value": 18.2, "unit": "nM"}, {"measurement": "IC50", "setting": "NCI-H358; Homo sapiens, NCI-H358, NCl-H358, Lung, Additional Single Agent Responses (inhibition, % I), 72 h", "value": 20.3, "unit": "nM"}, {"measurement": "Emax", "setting": "NCI-H358; Homo sapiens, NCI-H358, NCl-H358, Lung, Additional Single Agent Responses, 72 h, read-out: Max Response (% I)", "value": 82, "unit": "%"}, {"measurement": "GI50", "setting": "NCI-H358; Homo sapiens, NCI-H358, NCl-H358, Lung, growth inhibition (GI) curve, single agent, 72 h", "value": 18.3, "unit": "nM"}, {"measurement": "Emax", "setting": "NCI-H358; Homo sapiens, NCI-H358, NCl-H358, Lung, growth inhibition (GI), single agent, 72 h, read-out: Max Response (% GI)", "value": 127, "unit": "%"}, {"measurement": "Best CI", "setting": "NCI-H358; [10]", "value": 0.27}, {"measurement": "Bliss Volume", "setting": "NCI-H358; [10]", "value": "−1.00"}, {"measurement": "HSA volume", "setting": "NCI-H358; [10]", "value": "−5.36"}, {"measurement": "Loewe Volume", "setting": "NCI-H358; [10]", "value": "−3.73"}, {"measurement": "Synergy Score", "setting": "NCI-H358; [10]", "value": 6.46}, {"measurement": "Response Area", "setting": "NCI-H358; NCl-H358, Lung, Additional Single Agent Responses (inhibition, % I), 72 h", "value": 3.36}, {"measurement": "Response Area", "setting": "NCI-H358; NCl-H358, Lung, growth inhibition (GI), AUC, single agent, 72 h", "value": 4.69}, {"measurement": "Best CI", "setting": "NCI-H358; [11]", "value": 0.38}, {"measurement": "Best CI Level", "setting": "NCI-H358; [11]", "value": 75}, {"measurement": "Bliss Volume", "setting": "NCI-H358; [11]", "value": "−3.69"}, {"measurement": "HSA volume", "setting": "NCI-H358; [11]", "value": "−3.63"}, {"measurement": "Loewe Volume", "setting": "NCI-H358; [11]", "value": "−3.23"}, {"measurement": "Synergy Score", "setting": "NCI-H358; [11]", "value": 1.36}]}
